Key:
Dm28c trypomastigotes [1] = assay: Trypomastigote viability study (MTT); format: cell-based, Trypanosoma cruzi
RAW 264.7 cells = assay: Cytotoxicity MTT assay on RAW 264.7 cells; format: cell-based; details: in vitro cytotoxicity, murine RAW 264.7 macrophages
[2] = test system: trypomastigote form of T. cruzi (Dm28c strain); assay: ESR spin trapping with DMPO in parasite media; format: cell-based, Trypanosoma cruzi; details: trypomastigotes, NADPH, aerobic conditions
Description: The free radical production capacity of the new complexes was assessed in the parasite by ESR using 5,5- dimethyl-1-pirroline-N-oxide (DMPO) for spin trapping. Each tested compound was dissolved in DMSO (spectroscopy grade) (ca. 1 mM) and the solution was added to a mixture containing the trypomastigote form of T. cruzi (Dm28c strain, final protein concentration 4–8 mg/mL) and DMPO (final concentration 250 mM). The mixture was transferred to a 50 μL capillary. ESR spectra were recorded in the X band (9.85 GHz) using a Bruker ECS 106 spectrometer with a rectangular cavity and 50 KHz field modulation. All the spectra were registered in the same scale after 15 scans.

[3] = test system: T. cruzi epimastigote stage (Dm28c strain); assay: Epimastigotes viability study (MTT); format: cell-based, Trypanosoma cruzi
[4] = Cyclic voltammetry, reduction of nitro group; format: physicochemical
Dm28c trypomastigotes [5] = assay: Intracellular ROS generation (DCFH2-DA); format: cell-based, Trypanosoma cruzi; details: compound at IC50, 40 min
Description: ROS detection was performed using the 2′, 7′-dichlorodihydrofluorescein diacetate (DCFH2-DA) method. For Dm28c trypomastigotes, 96-well plates were seeded with 10 × 10^6 trypomastigotes/mL in RPMI medium without phenol red and supplemented with 5% SFBi. Cultures were incubated with a 20 μM DCFH2-DA solution for 15 min at 37 °C. Then, they were centrifuged at 6000 rpm and washed 2 times with phosphate-buffered saline at pH 7.4. The DCFH2-DA-loaded trypomastigotes were then transferred to a Nunc® fluorescence 96-well plate. […] The area under fluorescence increase over time curves were determined using Origin 8 software 9.2, with areas normalized to control. Results are the means ± SD of three independent experiments.

[6] = test system: trypomastigotes of T. cruzi; assay: Plasmatic membrane permeability assay (SYTOX Green) on trypomastigotes; format: cell-based, Trypanosoma cruzi; details: compound at IC50, 1 h
Description: Late growth-phase trypomastigotes of T. cruzi (3 × 10^6/well) were washed and incubated in the dark with 1 μM SYTOX Green probe (Molecular Probes) in HANKS′ balanced salts solution (HBSS; Sigma-Aldrich) supplemented with 10 mM D-glucose (HBSS + Glu). The test compound was added at IC50, and fluorescence was measured after 1 h of treatment. The maximum permeabilization was obtained with 0.5% Triton X-100. Fluorescence intensity was determined using Varioskan™ LUX multimode microplate reader (ThermoFisher Scientific, Waltham, MA, USA), with excitation and emission wavelengths of 485 and 520 nm, respectively. The following internal controls were used in the evaluation: (i) the background fluorescence of the compound at the respective wavelengths and (ii) the possible interference of DMSO. Samples were tested in triplicate.

[7] = test system: trypomastigote form of T. cruzi; assay: Analysis of ATP levels (CellTiter-Glo); format: cell-based, Trypanosoma cruzi; details: trypomastigotes; relative to negative control
Description: The CellTiter-Glo® Luminescent Cell Viability Assay (Promega, Fitchburg, WI, USA) was used to detect variations in ATP levels. After incubation, treated parasites were centrifuged (6000 rpm, 10 min, 4 °C) and treated according to the manufacturer’s instructions. Luminescence was determined using the Varioskan™ LUX multi-mode microplate reader (ThermoFisher Scientific). Results were expressed as a percentage relative to the negative control without treatment. Sodium azide (20 mM NaN3 for 3 h) was added as a positive control and benznidazole as a reference treatment. (1) %relative control=luminescence sample/luminescence control∗100

[8] = test system: Dm28c trypomastigote of T. cruzi; assay: Mitochondrial membrane potential (TMRM incorporation); format: cell-based, Trypanosoma cruzi; details: trypomastigotes, compound at IC50, 3 h; compared to negative control
Description: Mitochondrial membrane potential (ψm) was determined by the incorporation of the fluorescent probe tetramethylrhodamine methyl ester (TMRM). […] Then, carbonylcyanide-m-chlorophenylhydrazone (CCCP, 10 µM) was added as a control and incubated at 37 °C in humidified air and 5% CO2 for 3 h. Parasites were washed with phosphate-buffered saline (pH 7.4), and suspensions were incubated with TMRM (50 nM) for 15 min. Fluorescence measurements determined the incorporation of the probe at an excitation wavelength of 550 nm and an emission of 590 nm. All the assays were performed in darkness.

## O=c1c2cc([N+](=O)[O-])ccc2[nH]n1Cc1ccccn1 [Compound 5a, 5-nitro-2-picolyl-indazolin-3-one]
Dm28c trypomastigotes [1]; Selectivity Index IC50 macrophages RAW 264.7/IC50 trypomastigotes Dm28c
  SI Trypomastigote: 12.8
Dm28c trypomastigotes [1]; T. cruzi Dm28c trypomastigotes, 24 h, MTT
  IC50: 5.4 ± 0.7 µM
RAW 264.7 cells
  IC50: 68.9 ± 0.7 µM
[2]
  radical species detected by DMPO spin trapping: generation of the hydroxyl radical
[3]; Selectivity Index IC50 macrophages RAW 264.7/IC50 epimastigotes Dm28c
  SI Epimastigote: 62.6
[3]; T. cruzi Dm28c epimastigotes, 24 h, MTT
  IC50: 1.1 ± 0.3 µM
[4]; anodic peak potential of couple IIIc/IIIa, given with inverted sign, vs. Ag/AgCl electrode in DMSO
  −EpaIII: 1.32 V
[4]; cathodic peak potential of couple IIIc/IIIa, given with inverted sign, vs. Ag/AgCl electrode in DMSO
  −EpcIII: 1.36 V
[4]; current ratio RNO2/RNO2•−, couple IIIc/IIIa, DMSO
  Ipa/Ipc: 0.62
[4]; half-wave potential of couple IIIc/IIIa, given with inverted sign, vs. Ag/AgCl electrode in DMSO
  −E1/2: 1.34 V
Dm28c trypomastigotes [5]
  intracellular ROS (DCF fluorescence intensity): most significant increase in fluorescence intensity
[6]
  alteration of plasma membrane permeability (SYTOX Green incorporation): alter plasma membrane permeability
[7]
  ATP levels: significantly reduced ATP levels
[8]
  effect on mitochondrial membrane potential (ψm): statistically significant impact
